Measurements as given in patent US8680076B2, “Methods of treatment, improvement and prevention using haloaryl substituted aminopurines” (Signal Pharmaceuticals, LLC, priority 2010, dated 2014).
Entries after “also recorded” stand apart in the source; their conditions may differ.

What was measured:
[1] = system: DBA/2J mice, bleomycin-induced skin fibrosis; test: Bleomycin-induced dermal fibrosis mouse model (preventive treatment); type: in vivo; conditions: for reduction of collagen content in lesional skin (hydroxyproline assay): compared to bleomycin-treated animals
Protocol: The selective JNK inhibitor Compound JNKi-1 was tested in a bleomycin-induced dermal fibrosis mouse model, which is considered to represent the early and inflammatory stages of systemic sclerosis (Akhmetshina A, Venalis P, Dees C, Busch N, Zwerina J, Schett G, Distler O, Distler J H, Treatment with imatinib prevents fibrosis in different preclinical models of systemic sclerosis and induces regression of established fibrosis, Arthritis Rheum. 2009; 60(1):219-24). […] In animal models it will similarly induce injury and fibrosis at the site of delivery.
Male and female DBA/2J mice were used. Mice were fed a standard diet with water ad libitum. The room temperature was kept constant at 22° C. with a humidity of 60%.
Compound JNKi-1 was dissolved in 0.5% carboxymethylcellulose (CMC)/0.25% Tween 80 in water. Bleomycin was dissolved in 0.9% sodium chloride (NaCl) at a concentration of 0.5 mg/mL in a total volume of 100 μL. The positive control compound Imatinib mesylate was dissolved in 0.9% NaCl at a concentration of 50 mg/kg/day in a total volume of 100 μL.
Two different dose levels of the JNK-inhibitor Compound JNKi-1 (50 mg/kg and 150 mg/kg, administered twice daily) were used to analyze the anti-fibrotic activity in a mouse model of bleomycin-induced skin fibrosis. […] DBA/2J mice (n=5/sex/group) were assigned to one of five treatment groups: • Control group: 0.5% CMC/0.25% Tween 80 in water orally (PO) twice daily (BID) and subcutaneous injections of 100 μL 0.9% NaCl. • Untreated bleomycin group: intradermal injection of bleomycin and 0.5% CMC/0.25% Tween 80 in water orally BID. • 50 mg/kg Compound JNKi-1: intradermal injection of bleomycin and Compound JNKi-1 orally BID. • 150 mg/kg Compound JNKi-1: intradermal injection of bleomycin and Compound JNKi-1 orally BID. • Positive control group: intradermal injection of bleomycin and imatinib 50 mg/kg/day administered intraperitoneally (IP).
Localized dermal fibrosis was induced by injection of bleomycin every other day for 3 weeks in defined areas of the upper back. Compound JNKi-1 or imatinib was administrated starting from the first dose of bleomycin.
The dermal thickness was determined by staining with hematoxylin and eosin (H & E). The activated fibroblasts (myofibroblasts) at the fibrotic lesions were quantified by immunohistochemistry (IHC) for alpha smooth muscle actin (α-SMA). Collagen concentration in lesional skin was analyzed by hydroxyproline assay. Data are expressed as mean±standard error of the mean (SEM). SPSS17.0 software and the Mann-Whitney-U-test were used for statistical analyses. A p-value of less than 0.05 was considered statistically significant.

[2] = system: phosphorylation of the JNK target cJun in dermal SSc-fibroblasts; test: Western Blot analysis of c-Jun phosphorylation in TGF-β/PDGF-stimulated cultured dermal fibroblasts; type: cell-based, human; conditions: pre-incubation with compound
Protocol: To analyze whether the JNK pathway was activated by TGF-β and PDGF, Western Blot analysis for c-Jun in cultured dermal fibroblasts was performed.
After rinsing twice with PBS, the dermal fibroblasts were trypsinized and lysed with Laemmli Buffer. Five μg of protein from each sample were separated by 10% SDS-PAGE and electrotransferred onto polyvinylidene difluoride (PVDF) membranes according to standard protocols (Distler J H, Jungel A, Kowal-Bielecka O, Michel B A, Gay R E, Sprott H, et al. Expression of interleukin-21 receptor in epidermis from patients with systemic sclerosis. Arthritis Rheum. 2005; 52(3):856-64). Immunoblots were incubated with monoclonal antibodies against c-Jun and phospho-c-Jun (Santa Cruz, Heidelberg, Germany) at a dilution of 1:200 overnight at 4° C. After incubation with horseradish peroxidase-conjugated rabbit anti-mouse antibodies (Dako, Hamburg, Germany) for 1 hour at a dilution of 1:2000, signals were detected with ECL Western Blotting Detection Reagents (Amersham Bioscience, Freiburg, Germany). For confirmation of equal loading of proteins, the amount of β-actin was determined using mouse anti-human β-actin antibodies (Sigma-Aldrich, Munich, Germany; dilution 1:10000).

In the case of `O[C@H]1CC[C@H](Nc2ncc3nc(Nc4c(F)cc(F)cc4F)n([C@H]4CCOC4)c3n2)CC1` [JNKi-1, 4-((9-((3S)-tetrahydro-3-furanyl)-8-((2,4,6-trifluorophenyl)amino)-9H-purin-2-yl)amino)-trans-cyclohexanol], the “decrease of dermal thickness” value ([1]; 50 mg/kg orally BID, 3 weeks bleomycin, mean±SEM) is reported as 24%±5%, the “reduction of collagen content in lesional skin (hydroxyproline assay)” value ([1]; 50 mg/kg orally BID) is reported as 29%±11% and the “reduction of number of myofibroblasts (α-SMA IHC)” value ([1]; 50 mg/kg orally BID, mean±SEM) is reported as 80%±10%. For the same compound, the “reduction of collagen content in lesional skin (hydroxyproline assay)” value ([1]; 150 mg/kg orally BID) was 47%±9%, the “reduction of number of myofibroblasts (α-SMA IHC)” value ([1]; 150 mg/kg orally BID, mean±SEM) was 101%±9% and the “collagen content in lesional skin (in words)” value ([1]; 50 and 150 mg/kg orally BID) was “reduced dose-dependently”. For the same compound, the “dermal thickness / development of fibrosis (in words)” value ([1]; 50 and 150 mg/kg orally BID) was “decreased dose-dependently; also recorded: reduced dose dependently; also recorded: significantly ameliorated; also recorded: dose-dependently inhibited dermal thickness”, the “myofibroblasts in lesional skin (in words)” value ([1]; 50 and 150 mg/kg orally BID) was “significantly decreased; also recorded: completely prevented” and the “stimulatory effect of PDGF on c-Jun phosphorylation” value [2] was “completely prevented”. The “stimulatory effects of TGF-β and PDGF on the phosphorylation of c-Jun” value [2] was “reduced the stimulatory effects”.
